According to patent publication US20250367301A1, “PHARMACEUTICAL COMPOSITION FOR PREVENTING OR TREATING TRIPLE-NEGATIVE BREAST CANCER, COMPRISING OLIGONUCLEOTIDE AS ACTIVE INGREDIENT” (INTEROLIGO CORPORATION, priority 2021, published 2025):

How the values were obtained:
[1] = system: TNBC metastasis after surgical resection; conditions: after 50 days post-insertion of the drug/hydrogel patch at the resection site; mice; cited from earlier work
[2] = system: 4T1-Luc2 triple-negative breast cancer orthotopic tumor resection model; assay: Antitumor efficacy via intraperitoneal injection in TNBC orthotopic animal model (tumor resection model); format: in vivo, female Balb/c mice
4T1 Luc2 cell line = assay: Intracellular uptake by flow cytometry in 4T1 Luc2 cells; format: cell-based, mouse; conditions: flow cytometry of 4T1 cells
Procedure: In this experiment, 4T1 Luc2 cell line (ATCC, USA) was used and the cells were cultured using the same method described in 3-1-1.
The medium was replaced with RPMI medium containing 5% FBS and treated with drugs for additional 2, 4, 6, 24 hours, and then DAPI staining was performed after the reaction was completed. The finished samples were compared using a flow cytometer (Beckman Coulter CytoFlex (3 lasers)) to measure the degree of fluorescence expression against the control cell line.

Nc1ncnc2c1ncn2C1O[C@@H]2CO[P@@](=O)([S-])O[C@H]3[C@@H](O)[C@H](n4cnc5c(N)ncnc54)O[C@@H]3CO[P@@](=O)([S-])O[C@@H]1[C@@H]2O.[Na+].[Na+] (stereo partly shown) [STING-RR]
survival rate [1]: 60%

Nc1ccn([C@@H]2O[C@H](CO)[C@@H](O)C2(F)F)c(=O)n1 [gemcitabine, 2′,2′-difluorodeoxycytidine, reference compound]
time within which all mice died (lung metastasis) ([2]; 1 mg intraperitoneal every other day, 10 times, after tumor resection, 5 mice): ≤ 30 days

(Gem)2-[TGG]4[TTG][TGG]5 (NNTGGTGGTGGTGGTTGTGGTGGTGGTGGTGG; two 5' gemcitabine; modified_base 1 OTHER; 2', 2'-difluoro deoxycytidine; modified_base 2 OTHER) [IO101L, modified oligonucleotide, two gemcitabine at the 5′ end]
intracellular influx compared with the IO101L-control group (4T1 Luc2 cell line; FIG. 4): significantly superior
mice with confirmed lung metastasis ([2]; 2 mg intraperitoneal every other day, 10 times, after tumor resection): 3 out of 7
inhibition of cancer metastasis compared to positive control gemcitabine ([2]; intraperitoneal, post-TNBC tumor resection): significantly inhibited cancer metastasis
mice surviving until day 76 ([2]; mouse, in vivo, ip): 4 out of 7

Cy5-(Gem)(Gem)[TGG]4[TTG][TGG]5 [Cy5-labeled IO101L]
Cy5-labeled IO101L found to enter the cells (4T1 Luc2 cell line; after 24 hours): over 80%
